Results published in patent publication US20020107197A1, “Ligands for G protein coupled receptors and methods of using them” (priority 2000, published 2002).

Key:
[1] = target: T1, GPR4 (Homo sapiens, UniProt P46093); test: Radioligand binding to homogenates of GPR4-transfected CHO cells; conditions: cold competitors, GPR4-transfected CHO cell homogenates
T1 construct: were used to generate full length GPR4, which was digested with EcoRI and Xba I and cloned into the pBs3HA vector; expressed in transfected cells
Protocol: (§1) To characterize the binding of SPC and LPC to GPR4 and TDAG8, we conducted radioligand binding assays. CHO cells were chosen for GPR4 binding assays, since HEK293 cells express relatively high levels of endogenous GPR4. CHO cells stably transfected with empty vector or GPR4 were serum starved for 20 h, then collected after exposure to 2 mM EDTA in PBS. The pelleted cells were stored at −80° C. until use. Binding assays were performed essentially as described previously (Xu et al. (2000) Nat Cell Biol 2, 261-267), except binding was performed at 4° C. Briefly, frozen cells (10^6 cells/ml) were homogenized in a binding buffer. Assays were performed in 96-well plates in triplicate with 100 μl cell homogenate (equivalent to 10^5 cells/well). Different amounts of [^3H]SPC or [^3H]16:0-LPC were added to the cell homogenates in 50 μl of binding buffer, in the presence or absence of cold SPC or 16:0-LPC, or other competitors. The plates were incubated at 4° C. for 120 min, unless otherwise indicated. Cell-bound [^3H]SPC or [^3H]LPC was collected onto a filter (Printed Filtermat A, Wallac, Gaithersburg, Md.) using an automated cell harvester (HARVESTER 96, Tomtec, Orange, Conn.). Specific binding was calculated by subtraction of nonspecific binding (binding detected in the presence of 100-fold excess unlabeled SPC or 16:0-LPC) from the total binding.
Cell homogenates were used for binding assays. Binding was conducted at 4° C. for 120 min or as indicated. [^3H]SPC and [^3H]16:0-LPC specifically bound to cell homogenates from GPR4-transfected CHO cells in a time-dependent manner and reached equilibrium after 60 min incubation at 4° C. […] The maximum binding capacities for SPC and 16:0-LPC were 996 fmole/10^5 cells for SPC and 1,528 fmole/10^5 cells for 16:0-LPC. […] Binding assays using [^3H]18:0-LPC gave similar results. We also tested the four glycosphingolipids, Psy, Glu-Sph, Gal-Cer, and Lac-Cer, for their ability to compete for the binding of [^3H]SPC and [^3H]16:0-LPC to GPR4.

[2] = target: T1, GPR4; test: Single-cell intracellular calcium assay (fura-2) in GPR4-GFP-transfected MCF10A cells; type: cell-based; conditions: for effect of PAF receptor antagonist on calcium response to LPC or SPC: BN52021 200 μM, WEB-2086 2 μM, WEB-2170 2 μM; for increase in [Ca2+]i in GPR4- vs vector-transfected/parental MCF10A cells: lipid at 1 μM
Protocol: (§2) Measurement of [Ca^2+]i, was performed as described previously in Xu et al. (2000) Nat Cell Biol 2, 261-267. Briefly, pGPR4-GFP-transfected MCF10A cells were grown in specialized glass-bottom dishes (Bioptech, Inc., Butler, Pa.) and loaded with fura-2 in HEPES buffered saline. Using a dual-wavelength spectrofluorometer (RFK-6002, Photon Technology Int'l, So. Brunswick, N.J.) coupled to an inverted fluorescence microscope (Olympus, IX-70, Lake Success, N.Y.), GFP-positive cells were identified using an excitation wavelength of 488 nm, a dichroic 505 nm long-pass filter and an emitter filter at bandpass of 535 nm (Chroma Technology, Brattleboro, Vt.). Measurements of [Ca^2+]i were performed on individual GPR4-GFP positive cells at excitation wavelengths of 340 and 380 nm and an emission wavelength of 510 nm. Conversion of the 340/380 ratio value into [Ca^2+]i in nM was estimated by comparing the cellular fluorescence ratio with ratios acquired using fura-2 (free acid) in buffers containing known Ca^2+ concentrations. [Ca^2+]i was then calculated as described by Grynkiewicz et al. (1985) J Biol Chem 260, 3440-3450. All calcium assays were performed in the presence of 1 mM EGTA in the assay buffers. Therefore, intracellular calcium release, not calcium influx, was analyzed.
To test whether GPR4 is a receptor for SPC, MCF10A cells were transiently transfected with pGPR4-GFP.
The GFP receptor fusion was used to identify positively transfected cells, and single-cell calcium assays were performed as described in our previous studies, such as Xu et al. (2000) Nat Cell Biol 2, 261-267.

[3] = target: T1, GPR4; test: Internalization of GPR4-GFP in HEK293 cells (confocal microscopy); type: cell-based
Protocol: pGPR4-GFP stably expressing HEK293 cells were cultured in 6 cm tissue culture dishes in RPMI1640 with 10% FBS. After 16-24 h serum starvation, cells were treated with different lipids at 37° C. for 2 h. Cells were washed with cold PBS and fixed with 4% paraformaldehyde in PBS. The subcellular localization of GPR4-GFP protein was visualized under a Leica TV confocal fluorescence microscope with a 63× oil immersion lens (Wetzler, Heidelberg, Germany). The excitation and emission wavelengths were 488 nm and 515-540 nm, respectively.
G protein coupled receptors undergo agonist-dependent desensitization and internalization. When HEK293 cells are transfected with the pEGFP-N1 vector, GFP protein is expressed in the cytosol of the cells. The GPR4-GFP and TDAG8-GFP fusion proteins, on the other hand, was expressed only on the plasma membrane.

[4] = target: T2, endogenous PAF receptor (Homo sapiens, UniProt P25105); test: Calcium assay of the endogenous PAF receptor in MCF10A cells; type: cell-based; conditions: BN52021 200 μM, WEB-2086 2 μM, WEB-2170 2 μM
T2 construct: endogenous in cells; host or cells: MCF10A (parental and GPR4-GFP-transfected)
Protocol: as §2
Therefore, it is unlikely that the increase in calcium induced by LPC was mediated by a PAF receptor.

[5] = target: T1, GPR4; test: ERK MAP kinase activation (phospho-ERK Western blot) in GPR4-infected Swiss 3T3 cells; type: cell-based; conditions: GPR4-ires-GFP vs GFP Swiss 3T3 cells; SPC and LPC 100 nM
Protocol: MAP kinases are key signaling intermediates of DNA synthesis and cell proliferation. Swiss 3T3 cells were infected with MSCV GPR4-ires-GFP or MSCV ires-GFP, and subsequently cells sorted by FACS for positive expression of GFP as described previously (Kabarowski et al. (2000) Proc Natl Acad Sci USA. 97, 12109-12114). Cells were plated in 6-well plates in DMEM containing 5% FBS, serum-starved overnight, and then treated lipids in DMEM for the indicated times. Cells were lysed on ice in RIPA buffer containing 50 mM Tris-HCl, pH 7.5, 1% Nonidet P-40, 0.5% deoxycholate,0.1% SDS, 150 mM NaCl, 2 mM EGTA, 25 mM sodium fluoride, 1 mM sodium orthovanadate, and 1× protease inhibitors (Sigma P8340). Lysates containing equal amounts of protein were separated on 10% SDS-polyacrylamide gels and transferred onto nitrocellulose membranes. Antibodies against phosphorylated ERK1/2 (Cell Signaling Technologies; Beverly, Mass.) were used to probe the membrane and the ECL system (Amersham) was used for detection. To normalize the amounts of protein loaded in each lane, membranes were stripped and re-probed with antibodies against total ERK (Cell Signaling Technologies). In some experiments, cells were pretreated with 100 ng/ml PTX for 12-16 h prior to SPC and LPC stimulation.

[6] = target: T1, GPR4; test: SRE luciferase reporter in GPR4-transfected HEK293 cells; type: cell-based; conditions: GPR4 cotransfection
Protocol: The serum-response element (SRE) reporter system is a sensitive assay for receptors of lipid factors (An et al. (1998) J Biol Chem 273, 7906-7910; An et al. (1999) Mol Pharmacol 55, 787-794). The SRE reporter system used herein (pSRE-Luc) was a gift from Dr. Songzhu An (UCSF), or may be purchased from Stratagene (La Jolla, Calif.). Both systems give identical results. HEK293 and HEK293GPR4 cells were cultured in RPMI1640 with 10% FBS in 10 cm dishes to ˜85% confluence. To the cells in each dish, pSRE-Luc (10 μg) was transfected in the presence of 60 μl LipofectAMINE reagent. Cells were seeded in 96-well plates 16 h after transfection, incubated for another 24 h in RPMI1640 with 10% FBS, and starved in serum-free medium for 16 h. SPC (dissolved in PBS to 10 mM) and other lipids (LPCs were dissolved in 70% ethanol. Other lipids were dissolved in PBS, 70-95% ethanol, or 100% MeOH) were diluted in serum free RPMI 1640 and added to the cells, followed by a 10 h incubation. Luciferase activity was measured in Microlite™ 1 plates (DYNEX Technologies, Inc., Virginia) using 60 μl of cell lysate and 20 μl luciferase substrate. PTX (100 ng/ml) was added during the 16 h serum starvation period and pcDNA1-C3 (encoding the C3-exoenzyme, 2 μg) was co-transfected with pSRE-Luc (10 μg). All experiments were performed in quadruplicate and were repeated at least three times. The Student's t test was performed using the GraphPad Instat software (San Diego, Calif.). p<0.05 was considered to be statistically significant.

[7] = target: T3, TDAG8 (Homo sapiens, UniProt Q8IYL9); test: Binding of phospholipids to TDAG8
T3 construct: expressed in transfected cells
Protocol: as §1
Using functional and binding assays, we have identified the ligands for TDAG8.

[8] = target: T3, TDAG8; test: TDAG8 receptor internalization; type: cell-based
From the text: G protein coupled receptors undergo agonist-dependent desensitization and internalization.

T1 sequence (P46093 whole entry): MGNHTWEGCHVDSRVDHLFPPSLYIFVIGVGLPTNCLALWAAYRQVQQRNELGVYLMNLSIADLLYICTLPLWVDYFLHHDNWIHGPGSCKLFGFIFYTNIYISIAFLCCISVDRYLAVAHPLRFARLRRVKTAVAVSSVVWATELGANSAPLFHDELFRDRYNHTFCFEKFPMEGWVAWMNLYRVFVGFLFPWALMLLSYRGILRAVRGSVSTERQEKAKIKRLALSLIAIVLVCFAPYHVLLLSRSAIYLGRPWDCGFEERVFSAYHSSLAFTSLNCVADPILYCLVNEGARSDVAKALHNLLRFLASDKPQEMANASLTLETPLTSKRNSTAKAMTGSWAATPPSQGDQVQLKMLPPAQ
T2 sequence (P25105 whole entry): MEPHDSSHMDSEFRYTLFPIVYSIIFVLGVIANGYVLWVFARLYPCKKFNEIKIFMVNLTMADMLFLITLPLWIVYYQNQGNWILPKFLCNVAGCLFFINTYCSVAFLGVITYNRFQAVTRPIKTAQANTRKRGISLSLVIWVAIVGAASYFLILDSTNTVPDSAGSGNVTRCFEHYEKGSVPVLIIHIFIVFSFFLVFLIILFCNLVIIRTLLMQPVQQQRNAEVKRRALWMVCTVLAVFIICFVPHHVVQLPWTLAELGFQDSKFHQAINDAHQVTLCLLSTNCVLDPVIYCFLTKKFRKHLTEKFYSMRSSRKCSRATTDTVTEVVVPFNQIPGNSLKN
T3 sequence (Q8IYL9 whole entry): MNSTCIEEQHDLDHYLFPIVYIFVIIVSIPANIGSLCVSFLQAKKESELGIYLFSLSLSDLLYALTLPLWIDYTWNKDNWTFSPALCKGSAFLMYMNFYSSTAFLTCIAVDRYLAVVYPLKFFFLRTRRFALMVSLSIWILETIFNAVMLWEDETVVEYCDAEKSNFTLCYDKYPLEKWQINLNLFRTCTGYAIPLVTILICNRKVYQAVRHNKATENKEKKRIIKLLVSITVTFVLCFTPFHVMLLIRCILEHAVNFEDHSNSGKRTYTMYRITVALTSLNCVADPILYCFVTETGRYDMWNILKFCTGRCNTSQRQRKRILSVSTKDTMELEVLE

| Molecule | competition for binding of [3H]SPC and [3H]16:0-LPC to GPR4 [1] | GPR4-dependent ERK activation (in words) [5] | increase in [Ca2+]i in GPR4- vs vector-transfected/parental MCF10A cells [2] | further results |
| --- | --- | --- | --- | --- |
| CCCCCCCCCCCCCCCCCC(=O)OC[C@@H](O)COP(=O)([O-])OCC[N+](C)(C)C [18:0-LPC] | successfully competed for binding |  |  |  |
| Cc1nnc2n1-c1sc(CCC(=O)N3CCOCC3)cc1C(c1ccccc1Cl)=NC2 [WEB-2086] |  |  |  | effect of PAF receptor antagonist on calcium response to LPC or SPC [2]: not affected; effect of PAF receptor antagonist on GPR4 internalization induced by SPC or 16:0-LPC [3]: did not affect; effect on calcium signal induced by PAF (100 nM) [4]: completely abolished |
| lactosyl-β1′1-ceramide [Lac-Cer] | None of these glycosphingolipids competed successfully | activation was independent of GPR4 expression | did not stimulate increases in [Ca^2+]i |  |
| galactosyl-β1′1-ceramide [Gal-Cer] | None of these glycosphingolipids competed successfully | not | induced the same level of increased [Ca^2+]i |  |
| CCCCCCCCCCCCC/C=C/[C@@H](O)[C@@H](N)COP(=O)([O-])OCC[N+](C)(C)C [D-erythro-SPC] |  |  | stereoselectivity of GPR4 favoring D-erythro-SPC |  |
| CCCCCCCCCCCCC/C=C/[C@@H](O)[C@@H](N)CO[C@@H]1O[C@H](CO)[C@H](O)[C@H](O)[C@H]1O [Psy, psychosine] | None of these glycosphingolipids competed successfully | not | did not stimulate increases in [Ca^2+]i |  |
| CCCCCCCCCCCCCCCCOC[C@@H](O)COP(=O)([O-])OCC[N+](C)(C)C [lyso-PAF] | not |  |  | transcriptional activation of SRE (in words) [6]: none of them induced significant transcriptional activation of SRE; binding to TDAG8 [7]: able to bind to TDAG8; TDAG8 receptor internalization [8]: induced TDAG8 receptor internalization |
| Cc1nnc2n1-c1sc3c(c1C(c1ccccc1Cl)=NC2)CC(C(=O)N1CCOCC1)C3 (centres unmarked) [WEB-2170] |  |  |  | effect of PAF receptor antagonist on calcium response to LPC or SPC [2]: did not affect; effect of PAF receptor antagonist on calcium response to LPC or SPC ([2]; listed as WEB-2071): insensitive; effect of PAF receptor antagonist on GPR4 internalization induced by SPC or 16:0-LPC [3]: did not affect; effect on calcium signal induced by PAF (100 nM) [4]: completely blocked |
| CCCCCCCCCCCCC/C=C/[C@@H](O)[C@@H](N)CO[C@@H]1O[C@H](CO)[C@@H](O)[C@H](O)[C@H]1O [Glu-Sph, glucosyl-β1′1-sphingosine] | None of these glycosphingolipids competed successfully | not | did not stimulate increases in [Ca^2+]i |  |
| lysophosphatidylinositol [LPI(18:0)] | not |  |  |  |
| Sphingomyelin [SM (18:0)] | not |  |  | transcriptional activation of SRE (in words) [6]: none of them induced significant transcriptional activation of SRE |
| CCCCCCCCCCCCC/C=C/[C@@H](O)[C@@H](N)COP(=O)([O-])OCC[N+](C)(C)C [L-threo-SPC] |  |  | favoring D-erythro-SPC (the bioactive form of SPC) vs. L-threo-SPC |  |
| CC1C(=O)OC2C(O)C34C5CC(C(C)(C)C)C36C(OC(=O)C6O)OC4(C(=O)O5)C12O (centres unmarked) [BN52021] |  |  |  | effect of PAF receptor antagonist on calcium response to LPC or SPC [2]: not affected; effect of PAF receptor antagonist on GPR4 internalization induced by SPC or 16:0-LPC [3]: did not block; effect on calcium signal induced by PAF (100 nM) [4]: completely abolished |
